For this assay, the target named is PD-1/PD-L1 (Homo sapiens (Human), UniProt Q9NZQ7). Briefly: PD-1/PD-L1 Homogeneous Time-Resolved Fluorescence (HTRF) Binding Assay. To be noted: recombinant human PD-1 (3 nM) and PD-L1 (10 nM), 25° C., PBS pH 7.4. Put shortly:
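Fc-tagged human PD-1 (25-167, 3 nM) and His-tagged PD-L1 (19-238, 10 nM) preincubated with inhibitor 40 min in PBS pH 7.4, 0.05% Tween-20, 0.1% BSA, 1% DMSO, 25 °C. Binding detected by HTRF (Eu anti-IgG/APC anti-His, 665/620 nm) after 60 min; IC50 from percent control activity.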
(In TR-FRET formats the signal depends on donor and acceptor labels being close together.)

This passage reports IC50 results from patent US10308644B2, “Heterocyclic compounds as immunomodulators” (Incyte Corporation, priority 2016, dated 2019).

Sequence of PD-1/PD-L1 (Q9NZQ7 19-238): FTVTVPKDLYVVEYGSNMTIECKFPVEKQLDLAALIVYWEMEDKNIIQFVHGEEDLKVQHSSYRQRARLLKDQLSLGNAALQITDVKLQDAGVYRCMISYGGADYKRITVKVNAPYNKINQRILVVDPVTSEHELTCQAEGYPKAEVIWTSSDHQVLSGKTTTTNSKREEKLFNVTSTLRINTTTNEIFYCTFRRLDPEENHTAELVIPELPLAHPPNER

For `Cc1c(-c2nc3c(o2)CN(C(=O)CN2CCCC[C@H]2C(=O)O)C3)cccc1-c1cccc(-c2nc3cc(CN4CC[C@@H](O)C4)cc(C#N)c3o2)c1C` [Example 133, (S)-1-(2-(2-(3′-(7-cyano-5-(((R)-3-hydroxypyrrolidin-1-yl)methyl)benzo[d]oxazol-2-yl)-2,2′-dimethyl-[1,1′-biphenyl]-3-yl)-4,6-dihydro-5H-pyrrolo[3,4-d]oxazol-5-yl)-2-oxoethyl)piperidine-2-carboxylic acid], the IC50 – broadly, the concentration that gives 50% inhibition – is ≤ 10 nM.

Regarding `Cc1c(Nc2nccc3cc(CN4CCCC4)cnc23)cccc1-c1cccc(-c2nc3cc(CN4CC[C@@H](C(=O)O)C4)cc(C#N)c3o2)c1C` [Example 134, (R)-1-((7-cyano-2-(2,2′-dimethyl-3′-(3-(pyrrolidin-1-ylmethyl)-1,7-naphthyridin-8-ylamino)biphenyl-3-yl)benzo[d]oxazol-5-yl)methyl)pyrrolidine-3-carboxylic acid], the IC50 was ≤ 10 nM. For the molecule `Cc1c(Nc2nccc3cc(CN4CCC4)cnc23)cccc1-c1cccc(-c2nc3cc(CN4CC[C@@H](C(=O)O)C4)cc(C#N)c3o2)c1C` [Example 135, (R)-1-((2-(3′-(3-(azetidin-1-ylmethyl)-1,7-naphthyridin-8-ylamino)-2,2′-dimethylbiphenyl-3-yl)-7-cyanobenzo[d]oxazol-5-yl)methyl)pyrrolidine-3-carboxylic acid], the IC50 is ≤ 10 nM. Regarding `Cc1c(Nc2nccc3cc(CN4CC(O)C4)cnc23)cccc1-c1cccc(-c2nc3cc(CN4CC[C@@H](C(=O)O)C4)cc(C#N)c3o2)c1C` [Example 136, (R)-1-((7-cyano-2-(3′-(3-((3-hydroxyazetidin-1-yl)methyl)-1,7-naphthyridin-8-ylamino)-2,2′-dimethylbiphenyl-3-yl)benzo[d]oxazol-5-yl)methyl)pyrrolidine-3-carboxylic acid], the IC50 is ≤ 10 nM. With `Cc1c(Nc2nccc3cc(CN4CC[C@@](C)(O)C4)cnc23)cccc1-c1cccc(-c2nc3cc(CN4CC[C@@H](C(=O)O)C4)cc(C#N)c3o2)c1C` [Example 137, (R)-1-((7-cyano-2-(3′-(3-(((R)-3-hydroxy-3-methylpyrrolidin-1-yl)methyl)-1,7-naphthyridin-8-ylamino)-2,2′-dimethylbiphenyl-3-yl)benzo[d]oxazol-5-yl)methyl)pyrrolidine-3-carboxylic acid] the figure was ≤ 10 nM; with `Cc1c(Nc2nccc3cc(CN4CC[C@](C)(O)C4)cnc23)cccc1-c1cccc(-c2nc3cc(CN4CC[C@@H](C(=O)O)C4)cc(C#N)c3o2)c1C` [Example 138, (R)-1-((7-cyano-2-(3′-(3-(((S)-3-hydroxy-3-methylpyrrolidin-1-yl)methyl)-1,7-naphthyridin-8-ylamino)-2,2′-dimethylbiphenyl-3-yl)benzo[d]oxazol-5-yl)methyl)pyrrolidine-3-carboxylic acid], ≤ 10 nM; with `Cc1c(Nc2ncnc3cc(CN4CC[C@@H](O)C4)cnc23)cccc1-c1cccc(-c2nc3cc(CN4CC[C@@H](C(=O)O)C4)cc(C#N)c3o2)c1C` [Example 139, (R)-1-((7-cyano-2-(3′-(7-(((R)-3-hydroxypyrrolidin-1-yl)methyl)pyrido[3,2-d]pyrimidin-4-ylamino)-2,2′-dimethylbiphenyl-3-yl)benzo[d]oxazol-5-yl)methyl)pyrrolidine-3-carboxylic acid], ≤ 10 nM. For the molecule `Cc1c(Nc2nccc3cc(C(C)N4CC[C@@H](O)C4)cnc23)cccc1-c1cccc(-c2nc3cc(CN4CC[C@@H](C(=O)O)C4)cc(C#N)c3o2)c1C` (stereo partly drawn) [Example 140, (3R)-1-((7-cyano-2-(3′-(3-(1-((R)-3-hydroxypyrrolidin-1-yl)ethyl)-1,7-naphthyridin-8-ylamino)-2,2′-dimethylbiphenyl-3-yl)benzo[d]oxazol-5-yl)methyl)pyrrolidine-3-carboxylic acid], the IC50 was ≤ 10 nM.

Take `Cc1c(Nc2nccc3cc(CN4CC[C@@H](C(=O)O)C4)cnc23)cccc1-c1cccc(-c2nc3cc(CN4CC[C@@H](O)C4)cc(C#N)c3o2)c1C` [Example 141, (R)-1-((8-(3′-(7-cyano-5-(((R)-3-hydroxypyrrolidin-1-yl)methyl)benzo[d]oxazol-2-yl)-2,2′-dimethylbiphenyl-3-ylamino)-1,7-naphthyridin-3-yl)methyl)pyrrolidine-3-carboxylic acid]: the IC50 was ≤ 10 nM. `CCN1CCc2c(nc(C(=O)Nc3cccc(-c4cccc(-c5nc6cc(CN7CC[C@H](C(=O)O)C7)cc(C#N)c6o5)c4C)c3Cl)n2C)C1` [Example 142, (S)-1-((2-(2′-chloro-3′-(5-ethyl-1-methyl-4,5,6,7-tetrahydro-1H-imidazo[4,5-c]pyridine-2-carboxamido)-2-methyl-[1,1′-biphenyl]-3-yl)-7-cyanobenzo[d]oxazol-5-yl)methyl)pyrrolidine-3-carboxylic acid]: the 50% inhibitory concentration (IC50) was ≤ 10 nM. Regarding `CCN1CCc2c(nc(C(=O)Nc3cccc(-c4cccc(-c5nc6cc(CN7CC[C@@H](C(=O)O)C7)cc(C#N)c6o5)c4C)c3Cl)n2C)C1` [Example 143, (R)-1-((2-(2′-chloro-3′-(5-ethyl-1-methyl-4,5,6,7-tetrahydro-1H-imidazo[4,5-c]pyridine-2-carboxamido)-2-methyl-[1,1′-biphenyl]-3-yl)-7-cyanobenzo[d]oxazol-5-yl)methyl)pyrrolidine-3-carboxylic acid], the IC50 is ≤ 10 nM. For `Cc1c(Nc2nccc3c(CN4CC[C@H](O)C4)ccnc23)cccc1-c1cccc(-c2nc3cc(CN4CC[C@H](C(=O)O)C4)cc(C#N)c3o2)c1C` [Example 144, (S)-1-((7-cyano-2-(3′-((4-(((S)-3-hydroxypyrrolidin-1-yl)methyl)-1,7-naphthyridin-8-yl)amino)-2,2′-dimethyl-[1,1′-biphenyl]-3-yl)benzo[d]oxazol-5-yl)methyl)pyrrolidine-3-carboxylic acid], the IC50 was ≤ 10 nM. Consider `Cc1c(Nc2nccc3c(CN4CC[C@H](O)C4)ccnc23)cccc1-c1cccc(-c2nc3cc(CN4CC[C@@H](C(=O)O)C4)cc(C#N)c3o2)c1C` [Example 145, (R)-1-((7-cyano-2-(3′-((4-(((S)-3-hydroxypyrrolidin-1-yl)methyl)-1,7-naphthyridin-8-yl)amino)-2,2′-dimethyl-[1,1′-biphenyl]-3-yl)benzo[d]oxazol-5-yl)methyl)pyrrolidine-3-carboxylic acid], for which the IC50 is ≤ 10 nM.

As for `Cc1c(Nc2nccc3cc(CNC[C@H](C)O)cnc23)cccc1-c1cccc(-c2nc3cc(CN4CC[C@@H](C(=O)O)C4)cc(C#N)c3o2)c1C` [Example 146, (R)-1-((7-cyano-2-(3′-((3-((((S)-2-hydroxypropyl)amino)methyl)-1,7-naphthyridin-8-yl)amino)-2,2′-dimethyl-[1,1′-biphenyl]-3-yl)benzo[d]oxazol-5-yl)methyl)pyrrolidine-3-carboxylic acid], the IC50 was ≤ 10 nM. Turning to `Cc1c(Nc2nccc3cc(CNC[C@@H](C)O)cnc23)cccc1-c1cccc(-c2nc3cc(CN4CC[C@@H](C(=O)O)C4)cc(C#N)c3o2)c1C` [Example 147, (R)-1-((7-cyano-2-(3′-((3-((((R)-2-hydroxypropyl)amino)methyl)-1,7-naphthyridin-8-yl)amino)-2,2′-dimethyl-[1,1′-biphenyl]-3-yl)benzo[d]oxazol-5-yl)methyl)pyrrolidine-3-carboxylic acid], the IC50 was ≤ 10 nM. With `Cc1c(COc2cc(OCc3cncc(C#N)c3)c(CN3CC[C@@H](O)C3)cc2Cl)cccc1-c1cccc(-c2nc3cc(CN4CC[C@@H](C(=O)O)C4)cc(Cl)c3o2)c1C` [Example 148, (R)-1-((7-chloro-2-(3′-((2-chloro-5-((5-cyanopyridin-3-yl)methoxy)-4-(((R)-3-hydroxypyrrolidin-1-yl)methyl)phenoxy)methyl)-2,2′-dimethyl-[1,1′-biphenyl]-3-yl)benzo[d]oxazol-5-yl)methyl)pyrrolidine-3-carboxylic acid] the figure was ≤ 10 nM; with `Cc1c(COc2cc(OCc3cncc(C#N)c3)c(CN3CCCC[C@H]3C(=O)O)cc2Cl)cccc1-c1cccc(-c2nc3cc(CN4CC[C@@H](C(=O)O)C4)cc(Cl)c3o2)c1C` [Example 149, (S)-1-(4-((3′-(5-(((R)-3-carboxypyrrolidin-1-yl)methyl)-7-chlorobenzo[d]oxazol-2-yl)-2,2′-dimethyl-[1,1′-biphenyl]-3-yl)methoxy)-5-chloro-2-((5-cyanopyridin-3-yl)methoxy)benzyl)piperidine-2-carboxylic acid], 10 to 100 nM. With `Cc1c(COc2cc(OCc3cncc(C#N)c3)c(CNCCO)cc2Cl)cccc1-c1cccc(-c2nc3cc(CN4CC[C@@H](C(=O)O)C4)cc(Cl)c3o2)c1C` [Example 150, (R)-1-((7-chloro-2-(3′-((2-chloro-5-((5-cyanopyridin-3-yl)methoxy)-4-(((2-hydroxyethyl)amino)methyl)phenoxy)methyl)-2,2′-dimethyl-[1,1′-biphenyl]-3-yl)benzo[d]oxazol-5-yl)methyl)pyrrolidine-3-carboxylic acid] the figure was 10 to 100 nM; with `Cc1c(-c2nc3cc(CN4CC[C@@H](O)C4)cc(Cl)c3o2)cccc1-c1cccc(NC(=O)c2cc(CN3CC[C@@H](C(=O)O)C3)cn(C)c2=O)c1Cl` [Example 151, (R)-1-((5-(2-chloro-3′-(7-chloro-5-(((R)-3-hydroxypyrrolidin-1-yl)methyl)benzo[d]oxazol-2-yl)-2′-methylbiphenyl-3-ylcarbamoyl)-1-methyl-6-oxo-1,6-dihydropyridin-3-yl)methyl)pyrrolidine-3-carboxylic acid], ≤ 10 nM; with `Cc1c(Nc2nccn3c(CN4CC[C@H](O)C4)cnc23)cccc1-c1cccc(-c2nc3cc(CN4CC[C@H](C(=O)O)C4)cc(C#N)c3o2)c1C` [Example 152, (S)-1-((7-cyano-2-(3′-(3-(((S)-3-hydroxypyrrolidin-1-yl)methyl)imidazo[1,2-a]pyrazin-8-ylamino)-2,2′-dimethylbiphenyl-3-yl)benzo[d]oxazol-5-yl)methyl)pyrrolidine-3-carboxylic acid], ≤ 10 nM.
